11 compounds from ChEMBL document CHEMBL1201862, “PubChem BioAssay data set” (2004) can be followed below.

Test systems include OVCAR-5; MDA-MB-231; T47D; U-251; MCF7; BT-549; MDA-MB-435; SF-268; LOX IMVI; HOP-92; EKVX; Malme-3M; SK-MEL-5; SK-OV-3; K562; SK-MEL-28; KM12; NCI-H226; MDA-N; SF-539.
Holding throughout (assay): NCI tumour cell line growth inhibition, 48 h

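Interpolation was linear, between the two tested concentrations surrounding the appropriate level; five concentrations were tested over 48 hours in 96-well plates. GI50 = concentration required for 50% inhibition of growth.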 Active and inactive are the calls of the source. Rule as the data show it: active = GI50 up to about 1.1 µM and inactive = higher. Where a SMILES comes first, the peptide text is derived from it. [ ]: non-standard residue; d: D form. pGlu = O=C1CC[CH](C(=O)O)N1

Take `O=CC(O)C(O)C1OC(=O)c2cc(O)c(O)c(O)c2C2=C(O)C(O)=C3OC(=O)c4c(c(O)c(O)c5c4C3C2C(=O)O5)-c2c(cc(O)c(O)c2O)C(=O)OCC1O` (centres undefined): the GI50 in the test on OVCAR-5 was 24 µM (inactive); with MDA-MB-231, 19.1 µM (inactive); with T47D, 37.5 µM (inactive); in the test with U-251, 19.2 µM (inactive); in the test on MCF7 it was 17.2 µM (inactive); in the test with BT-549, > 100 µM (inactive). For the same compound, the GI50 with MDA-MB-435 is 16.5 µM (inactive); in the test with SF-268 it was 28.4 µM (inactive); with LOX IMVI, 13.6 µM (inactive); in the test on HOP-92, 18 µM (inactive); with EKVX, 23.7 µM (inactive); in the test with Malme-3M, 81.8 µM (inactive). Also, the GI50 was 25.9 µM (inactive) in the test with SK-MEL-5; 25.9 µM (inactive) in the test with SK-OV-3; 20.7 µM (inactive) with K562; 44.3 µM (inactive) in the test on SK-MEL-28; 10.4 µM (inactive) in the test with KM12; 21.4 µM (inactive) with NCI-H226. Moreover, the GI50 in the test on MDA-N was 19 µM (inactive).
Take `Cc1ccc(-c2cc(-c3ccco3)c(C#N)c(=S)[nH]2)cc1`: the GI50 in the test on OVCAR-5 is > 100 µM (inactive); in the test on MDA-MB-231, 43.2 µM (inactive); in the test on T47D, 20.4 µM (inactive); in the test on U-251, 21.4 µM (inactive); in the test with MCF7, 16.2 µM (inactive); in the test with BT-549, 42.8 µM (inactive). For the same compound, the GI50 is 23.9 µM (inactive) in the test on MDA-MB-435; 40.6 µM (inactive) with SF-268; 34.8 µM (inactive) in the test on LOX IMVI; 99.5 µM (inactive) in the test on HOP-92; 90.6 µM (inactive) in the test with EKVX; 24.2 µM (inactive) with Malme-3M. Moreover, the GI50 is 22.8 µM (inactive) in the test with SK-MEL-5; 39.9 µM (inactive) with SK-OV-3; 41 µM (inactive) in the test with K562; 20.8 µM (inactive) in the test with SK-MEL-28; 63.2 µM (inactive) with KM12; 31.5 µM (inactive) in the test on NCI-H226. Further, in the test with MDA-N, the GI50 is > 10 µM (inactive).
In the case of `COc1cc(OC)cc(N(C)Cc2cnc3nc(N)nc(N)c3c2C)c1`, the GI50 in the test on OVCAR-5 is 0.757 µM (active); in the test with MDA-MB-231, 21.3 µM (inactive); in the test with T47D, 38.3 µM (inactive); in the test with U-251, 0.543 µM (active); with MCF7, 0.92 µM (active); in the test with BT-549 it was > 25.7 µM (inactive). Besides, the GI50 in the test with SF-539 was 0.385 µM (active); in the test with MDA-MB-435, 0.759 µM (active); in the test on SF-268 it was 0.745 µM (active); with LOX IMVI it was 1.16 µM (inactive); in the test with HOP-92 it was 13.3 µM (inactive); in the test on EKVX, > 47.3 µM (inactive). The GI50 was 0.817 µM (active) with Malme-3M; 0.615 µM (active) with SK-MEL-5; 13.6 µM (inactive) in the test on SK-OV-3; 3.85 µM (inactive) in the test with KM12; > 41.1 µM (inactive) in the test with NCI-H226; 0.631 µM (active) in the test on MDA-N.
As to `Cc1cn(C(Cc2ccccc2)OCCO)c(=O)[nH]c1=O` (centres undefined), the GI50 in the test with OVCAR-5, with MDA-MB-231, with T47D, with U-251, with MCF7 and with BT-549 was > 100 µM (inactive) in each case. Further, the GI50 in the test with SF-539, in the test on MDA-MB-435, in the test with LOX IMVI, in the test with HOP-92, with EKVX and with SK-MEL-5 was > 100 µM (inactive) in each case. Moreover, the GI50 in the test with K562, in the test on SK-MEL-28, in the test on KM12, in the test with NCI-H226 and with MDA-N was > 100 µM (inactive) each time.
Take `CC[C@]1(Cc2ccc(OC)c(OC)c2)C=[N+]([O-])O[C@H](OC2CCCCC2c2ccccc2)[C@@H]1OC(C)=O` (some centres undefined): the GI50 is > 100 µM (inactive) with OVCAR-5; 75.3 µM (inactive) in the test with MDA-MB-231; 24.7 µM (inactive) in the test with T47D; 46.6 µM (inactive) in the test with U-251; 28.8 µM (inactive) in the test with MCF7; 70.8 µM (inactive) with BT-549. Also, the GI50 is 50.6 µM (inactive) in the test with MDA-MB-435; 40.9 µM (inactive) with LOX IMVI; 57.7 µM (inactive) in the test with HOP-92; 46.7 µM (inactive) with EKVX; 52.8 µM (inactive) in the test with Malme-3M; 38.1 µM (inactive) with SK-MEL-5. The GI50 in the test with SK-OV-3 is 84.9 µM (inactive); in the test on K562 it was 30.8 µM (inactive); in the test with SK-MEL-28, 61.7 µM (inactive); with KM12, 39.6 µM (inactive); with NCI-H226, 32.5 µM (inactive); with MDA-N, 53.5 µM (inactive).
Turning to `Cc1cc2[nH]c(=NS(=O)(=O)c3cc(C)c(Cl)cc3S)[nH]c2cc1C`, the GI50 in the test on OVCAR-5 was > 100 µM (inactive); with MDA-MB-231, > 100 µM (inactive); in the test with T47D, 82.2 µM (inactive); with U-251, 36.2 µM (inactive); with MCF7, 60.8 µM (inactive); in the test with BT-549 it was > 100 µM (inactive). Moreover, the GI50 in the test on SF-539 was 68.9 µM (inactive); in the test on MDA-MB-435, 65.5 µM (inactive); in the test with SF-268 it was 83.8 µM (inactive); in the test with LOX IMVI it was 28.9 µM (inactive); in the test with HOP-92 it was > 100 µM (inactive); in the test on EKVX, 24.1 µM (inactive). The GI50 in the test on Malme-3M was > 100 µM (inactive); with SK-MEL-5, 32.7 µM (inactive); in the test with SK-OV-3, > 100 µM (inactive); in the test on K562 it was 59.7 µM (inactive); with SK-MEL-28, > 100 µM (inactive); with KM12, 46.2 µM (inactive). In addition, in the test on MDA-N, the GI50 was > 100 µM (inactive).
In the case of `Brc1ccc(-c2nc(-c3ccc(Br)cc3)n(-c3ccccc3)n2)cc1`, the GI50 was > 100 µM (inactive) with OVCAR-5; > 100 µM (inactive) with MDA-MB-231; 12.9 µM (inactive) in the test with T47D; > 100 µM (inactive) in the test on U-251; > 100 µM (inactive) in the test with MCF7; > 100 µM (inactive) in the test with BT-549. The GI50 is > 100 µM (inactive) with SF-539; 46.7 µM (inactive) in the test with MDA-MB-435; > 100 µM (inactive) in the test on SF-268; > 100 µM (inactive) in the test on LOX IMVI; > 100 µM (inactive) in the test with HOP-92; 85.5 µM (inactive) in the test with EKVX. Moreover, the GI50 in the test with SK-MEL-5 was > 100 µM (inactive); in the test on SK-OV-3, > 100 µM (inactive); in the test on SK-MEL-28 it was > 100 µM (inactive); in the test with KM12, 49.5 µM (inactive); in the test on NCI-H226, > 100 µM (inactive); in the test with MDA-N, > 100 µM (inactive).
Regarding `CCOC(=O)Cc1nc2sc(S(N)(=O)=O)nn2c1Br`, the GI50 with OVCAR-5 is 22.1 µM (inactive); in the test with MDA-MB-231, 17.6 µM (inactive); in the test on T47D, 27.3 µM (inactive); in the test with U-251, 15.3 µM (inactive); in the test with MCF7, 24.7 µM (inactive); in the test with BT-549, 32.1 µM (inactive). In addition, the GI50 with MDA-MB-435 was 38.7 µM (inactive); in the test on SF-268, 56.5 µM (inactive); in the test with LOX IMVI it was 16.1 µM (inactive); in the test on HOP-92, 22.8 µM (inactive); with EKVX, 26.6 µM (inactive); in the test on Malme-3M it was 29.2 µM (inactive). Moreover, the GI50 with SK-MEL-5 is 16.1 µM (inactive); in the test with SK-OV-3, > 100 µM (inactive); in the test on K562, 41.5 µM (inactive); in the test on SK-MEL-28, 33.1 µM (inactive); in the test on KM12, 32.3 µM (inactive); in the test with NCI-H226, 27.2 µM (inactive). Also, the GI50 with MDA-N is 35.1 µM (inactive).
On to `NCCCCNCCCN1CCOC1=O`, for which the GI50 in the test with OVCAR-5, with MDA-MB-231, in the test with T47D, in the test on U-251, in the test with MCF7 and in the test with BT-549 was > 100 µM (inactive) each time. Further, the GI50 in the test with SF-539, with MDA-MB-435, with SF-268, in the test on LOX IMVI, with EKVX and with Malme-3M was > 100 µM (inactive) each time. In addition, the GI50 with SK-MEL-5, with SK-OV-3, with K562, with SK-MEL-28, in the test on KM12 and in the test on NCI-H226 was > 100 µM (inactive) each time. The GI50 with MDA-N was > 100 µM (inactive).
For the compound `CC(C)c1ccc2c(c1)/C(=C1/Nc3ccccc3C1=O)C(=O)N2`, the GI50 was 27.7 µM (inactive) in the test on OVCAR-5; 5.85 µM (inactive) with MDA-MB-231; 0.557 µM (active) in the test on T47D; 10.6 µM (inactive) with U-251; 0.0188 µM (active) with MCF7; 18.1 µM (inactive) with BT-549. The GI50 was 25.8 µM (inactive) with MDA-MB-435; 15.3 µM (inactive) in the test with SF-268; > 100 µM (inactive) in the test with LOX IMVI; 4.58 µM (inactive) with HOP-92; 5.7 µM (inactive) in the test with EKVX; 46.8 µM (inactive) with Malme-3M. The GI50 in the test with SK-MEL-5 is 27.2 µM (inactive); in the test with SK-OV-3, 3.75 µM (inactive); in the test with K562, 33.7 µM (inactive); in the test on SK-MEL-28, > 100 µM (inactive); in the test with KM12 it was 0.0973 µM (active); in the test on NCI-H226, 3.62 µM (inactive). Besides, in the test with MDA-N, the GI50 was 28.8 µM (inactive).
For the compound `CC(NC(=O)C1CCC(=O)N1)C(=O)N1CCCC1C(N)=O` (stereo not drawn) ([pGlu]-Ala-Pro-NH2; configuration not given here), the GI50 with OVCAR-5, with MDA-MB-231, in the test with T47D, in the test with U-251, with MCF7 and in the test with BT-549 was > 100 µM (inactive) in each case. The GI50 in the test on MDA-MB-435, in the test with SF-268, in the test with LOX IMVI, with HOP-92, in the test on EKVX and with Malme-3M was > 100 µM (inactive) in each case. In addition, the GI50 with SK-MEL-5, in the test on SK-OV-3, with K562, with SK-MEL-28, in the test on KM12 and with NCI-H226 was > 100 µM (inactive) in each case. For the same compound, the GI50 in the test with MDA-N is > 100 µM (inactive).
